Data from PubChem BioAssay AID504641 (Sanford-Burnham Center for Chemical Genomics, 2011).
Active and inactive are the calls of the source.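 The calls were made as follows: active = mean IC50 at or below a set limit; inactive = the rest.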

test system: 697 B-cell NF-kB luciferase reporter, PMA/ionomycin, 16 h; assay: NF-kB luciferase reporter inhibition in 697 B cells – cell-based, luminescence, set 3, SAR follow-up (AID 504641)

SMILES | IC50
CCOCCCNC(=O)CSCc1nc(-c2ccc(OCC)cc2)oc1C | 10300 nM
CC(C)(C)c1ccc(-c2noc(CCC(=O)N3CCOCC3)n2)cc1 | 24300 nM (inactive)
CCOc1ccccc1NC(=O)CCc1nc(-c2ccc(C(C)(C)C)cc2)no1 | < 160 nM
CCOc1ccc(-c2noc(CCC(=O)NC)n2)cc1 | > 80000 nM (inactive)
CC(C)(C)c1ccc(-c2noc(CCC(=O)N3CCCCC3)n2)cc1 | 30300 nM (inactive)
CCOc1ccc(-c2nc(CSCC(=O)NCc3cccnc3)c(C)o2)cc1 | 2380 nM
CC(C)(C)c1ccc(-c2noc(CCC(=O)NC3CCCCC3)n2)cc1 | 400 nM
CC(C)(C)c1ccc(-c2noc(CCC(=O)Nc3cccc([N+](=O)[O-])c3)n2)cc1 | < 160 nM
COc1ccccc1NC(=O)CCc1nc(-c2ccc(C(C)(C)C)cc2)no1 | < 160 nM
C=CCNC(=O)CCc1nc(-c2ccc(C(C)(C)C)cc2)no1 | 190 nM
COc1cccc(NC(=O)CCc2nc(-c3ccc(C(C)(C)C)cc3)no2)c1 | < 160 nM
CCOc1ccc(-c2nc(CSCC(=O)N3CCC(C)CC3)c(C)o2)cc1 | 70400 nM (inactive)
CNC(=O)CCc1nc(-c2ccc(Cl)cc2)no1 | > 80000 nM (inactive)
CCOc1ccc(-c2nc(CSCC(=O)NCCC3=CCCCC3)c(C)o2)cc1 | 36500 nM (inactive)
CCOc1ccc(-c2nc(CSCC(=O)NC(C)CC)c(C)o2)cc1 (stereo not drawn) | 46900 nM (inactive)
CCOc1ccc(-c2nc(CSCC(=O)NC3CCCC3)c(C)o2)cc1 | 25700 nM (inactive)
CNC(=O)CCc1nc(-c2ccc(OC)cc2)no1 | > 80000 nM (inactive)
CCOc1ccc(-c2nc(CSCC(=O)NCCc3ccccc3)c(C)o2)cc1 | 3560 nM
CCOc1ccc(-c2nc(CSCC(=O)N3CCCC3)c(C)o2)cc1 | > 80000 nM (inactive)
CC(C)(C)c1ccc(-c2noc(CCC(=O)NCc3ccco3)n2)cc1 | 200 nM
CCOc1ccc(-c2nc(CSCC(=O)NCCc3ccc(Cl)cc3)c(C)o2)cc1 | > 80000 nM (inactive)
CNC(=O)CCc1nc(-c2ccc(C)cc2)no1 | > 80000 nM (inactive)

SMILES | IC50
CC(C)(C)c1ccc(-c2noc(CCC(=O)Nc3cccnc3)n2)cc1 | 160 nM
CCOc1ccc(-c2nc(CSCC(=O)NCC3CCCO3)c(C)o2)cc1 (stereo not drawn) | 7840 nM
CCOc1ccc(-c2nc(CSCC(=O)NCCOC)c(C)o2)cc1 | 310 nM
CC(C)NC(=O)CCc1nc(-c2ccc(C(C)(C)C)cc2)no1 | 280 nM
CCCNC(=O)CSCc1nc(-c2ccc(SC)cc2)oc1C | > 80000 nM (inactive)
CCOc1ccc(-c2nc(CSCC(=O)NCc3cccs3)c(C)o2)cc1 | 650 nM
CCCNC(=O)CCc1nc(-c2ccc(C(C)(C)C)cc2)no1 | 190 nM
CCOc1ccc(-c2nc(CSCC(=O)NCCc3ccc(C)cc3)c(C)o2)cc1 | 18100 nM
CCOc1ccc(-c2nc(CSCC(=O)NCc3ccccc3)c(C)o2)cc1 | 6750 nM
CCOc1ccc(-c2nc(CSCC(=O)NCCN3CCCC3)c(C)o2)cc1 | 12100 nM
CNC(=O)CCc1nc(-c2ccc(F)cc2)no1 | > 80000 nM (inactive)
CCOc1ccc(-c2nc(CSCC(=O)NC3CCCC(C)C3C)c(C)o2)cc1 (stereo not drawn) | > 80000 nM (inactive)
CCCCNC(=O)CSCc1nc(-c2ccc(OCC)cc2)oc1C | 8640 nM
CSc1ccc(-c2nc(CSCC(=O)NC3CC3)c(C)o2)cc1 | 1360 nM
CC(C)(C)c1ccc(-c2noc(CCC(=O)Nc3ccccc3)n2)cc1 | < 160 nM
CCCNC(=O)CSCc1nc(-c2ccc(OCC)cc2)oc1C | 1510 nM
CCOc1ccc(-c2nc(CSCC(=O)NC(C)C)c(C)o2)cc1 | 1240 nM
CCOc1ccc(-c2nc(CSCC(=O)NCc3ccc(C)cc3)c(C)o2)cc1 | 2770 nM
CC(C)(C)c1ccc(-c2noc(CCC(=O)NC3CCCC3)n2)cc1 | 360 nM
CC(C)(C)c1ccc(-c2noc(CCC(=O)NCC3CCCO3)n2)cc1 (stereo not drawn) | 590 nM
CC(C)CNC(=O)CCc1nc(-c2ccc(C(C)(C)C)cc2)no1 | 240 nM
